How the values were obtained:
[1] = target: Cyclin-dependent kinase 4/cyclin D1 (Homo sapiens, UniProt P11802); assay: Inhibitory activity against human Cyclin D1-cyclin-dependent kinase 4 activity; assay type: protein-complex assay
HCT-116 = assay: Cytotoxic activity against human colon HCT116 cell line; assay type: functional, cell-based
[2] = target: Cyclin-dependent kinase 2/cyclin E (Homo sapiens, UniProt P24941); assay: Inhibition of human Cyclin E-cyclin-dependent kinase 2; assay type: protein-complex assay
[3] = target: Cyclin-dependent kinase 2 (Homo sapiens, UniProt P24941); assay: Inhibition of Cyclin-dependent kinase 2
[4] = target: Cyclin-dependent kinase 4 (Homo sapiens, UniProt P11802); assay: Inhibition of Cyclin-dependent kinase 4
Chain of Cyclin-dependent kinase 4 (P11802 whole entry): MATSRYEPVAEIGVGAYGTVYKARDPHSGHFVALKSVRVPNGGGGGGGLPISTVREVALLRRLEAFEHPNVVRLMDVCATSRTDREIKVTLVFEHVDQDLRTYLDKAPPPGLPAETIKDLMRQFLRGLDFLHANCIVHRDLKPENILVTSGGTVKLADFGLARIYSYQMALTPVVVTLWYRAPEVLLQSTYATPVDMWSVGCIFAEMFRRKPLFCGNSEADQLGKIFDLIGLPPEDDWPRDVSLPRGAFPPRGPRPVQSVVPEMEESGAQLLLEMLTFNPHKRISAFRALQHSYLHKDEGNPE

Chain of Cyclin-dependent kinase 4/cyclin D1 (P11802 whole entry): as above
Chain of Cyclin-dependent kinase 4/cyclin D1 (P24385 whole entry, further chain): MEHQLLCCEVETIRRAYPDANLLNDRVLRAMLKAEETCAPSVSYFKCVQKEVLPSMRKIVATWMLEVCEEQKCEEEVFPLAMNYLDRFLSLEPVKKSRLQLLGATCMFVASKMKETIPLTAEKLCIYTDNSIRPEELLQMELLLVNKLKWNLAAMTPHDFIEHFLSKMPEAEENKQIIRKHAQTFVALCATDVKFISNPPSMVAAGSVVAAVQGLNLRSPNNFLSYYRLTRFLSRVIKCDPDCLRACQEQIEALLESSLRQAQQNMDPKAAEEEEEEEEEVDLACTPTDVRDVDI

SMILES | IC50 [1] [µM] | IC50 (HCT-116) [µM] | IC50 [2] [µM] | IC50 [3] [µM] | IC50 [4] [µM]
O=C1NC(=O)c2c1c1c([nH]c3cccc(F)c31)c1c2c2cccc3c2n1CCC3 | > 2 | – | – | – | –
O=C1NC(=O)c2c1c1c3ccccc3[nH]c1c1c2c2cccc3c2n1CCCCC3 | 0.12 | 1.25 | > 2 | – | –
O=C1NC(=O)c2c1c1c3ccc(Br)cc3[nH]c1c1c2c2cccc3c2n1CCC3 | 0.09 | 2.3 | 1 | – | –
O=C1NC(=O)c2c1c1c3ccc(F)cc3[nH]c1c1c2c2cccc3c2n1CCC3 | 0.42 | 2.37 | > 0.2 | – | –
NCc1ccc2c(c1)[nH]c1c2c2c(c3c4cccc5c4n(c13)CCC5)C(=O)NC2=O | 0.17 | 2.26 | – | – | –
O=C1NC(=O)c2c1c1c3ccc(-c4ccncc4)cc3[nH]c1c1c2c2cccc3c2n1CCC3 | 0.59 | 3.29 | – | – | –
O=C1NC(=O)c2c1c1c3ccc(-c4cccnc4)cc3[nH]c1c1c2c2cccc3c2n1CCC3 | 0.16 | 1.13 | – | – | –
O=C1NC(=O)c2c1c1c3ccc(Cl)cc3[nH]c1c1c2c2cccc3c2n1CCC3 | 0.11 | 0.78 | > 0.2 | – | –
O=C1NC(=O)c2c1c1c3ccc(CN4CCC4)cc3[nH]c1c1c2c2cccc3c2n1CCC3 | 0.075 | 0.23 | – | – | –
O=C1NC(=O)c2c1c1c3ccccc3[nH]c1c1c2c2cccc3c2n1CCCC3 | 0.094 | 5.16 | 1 | – | –
O=C1NC(=O)c2c1c1c3cc(Br)ccc3[nH]c1c1c2c2cccc3c2n1CCC3 | > 2 | – | – | – | –
O=C1NC(=O)c2c1c1c3ccc(C(F)(F)F)cc3[nH]c1c1c2c2cccc3c2n1CCC3 | 0.29 | 1.48 | > 2 | – | –
O=C1NC(=O)c2c1c1c3ccc(CN4CCCCC4)cc3[nH]c1c1c2c2cccc3c2n1CCC3 | 0.087 | 0.32 | – | – | –
COC(=O)c1ccc2c(c1)[nH]c1c2c2c(c3c4cccc5c4n(c13)CCC5)C(=O)NC2=O | > 2 | – | – | – | –
O=C1NC(=O)c2c1c1c3ccccc3[nH]c1c1c2c2cccc3c2n1CCC3 | 0.11 | 1.6 | > 1 | – | –
O=C1NC(=O)c2c1c1c3cc(F)c(F)cc3[nH]c1c1c2c2cccc3c2n1CCC3 | > 2 | – | – | – | –
O=C1NC(=O)c2c1c1c3ccc(CN4CCOCC4)cc3[nH]c1c1c2c2cccc3c2n1CCC3 | 0.075 | 0.37 | – | – | –
COC(=O)c1ccc2[nH]c3c(c4c(c5c6cccc7c6n(c35)CCC7)C(=O)NC4=O)c2c1 | > 2 | – | – | – | –
O=C1NC(=O)c2c1c1c3ccc(CN4CCCC4)cc3[nH]c1c1c2c2cccc3c2n1CCC3 | 0.05 | 0.17 | – | – | –
O=C1NC(=O)c2c1c1c3ccc(CO)cc3[nH]c1c1c2c2cccc3c2n1CCC3 | 0.052 | 0.34 | – | – | –
O=C1NC(=O)c2c1c1c3ccc(CN4CCSCC4)cc3[nH]c1c1c2c2cccc3c2n1CCC3 | 0.09 | 0.6 | – | – | –
O=C1NC(=O)c2c1c1c3ccccc3n3c1c1c2c2ccccc2n1[C@H]1CC[C@@H]3O1 | – | – | – | 0.54 | 0.68
O=C1NC(=O)c2c1c1c3ccc(CN4CCCNCC4)cc3[nH]c1c1c2c2cccc3c2n1CCC3 | 0.079 | 7.6 | – | – | –
O=C1NC(=O)c2c1c1c3cc(F)ccc3[nH]c1c1c2c2cccc3c2n1CCC3 | > 2 | – | – | – | –
O=C1NC(=O)c2c1c1c3ccccc3[nH]c1c1c2c2cccc3c2n1CC3 | 0.24 | 1.02 | > 2 | – | –
O=C1NC(=O)c2c1c1c3ccc(CN4CCNCC4)cc3[nH]c1c1c2c2cccc3c2n1CCC3 | 0.065 | > 10 | – | – | –

From ChEMBL document CHEMBL1146650, “1,7-annulated indolocarbazoles as cyclin-dependent kinase inhibitors” (Bioorg Med Chem Lett, 2004)
